Laboratory results as given in patent US20220187282A1, “CARDIOMYOCYTE PROLIFERATION” (The Council of the Queensland Institute of Medical Research, priority 2019, published 2022).
Read-outs that look alike come from different tables or passages of the source.

Experiments:
Format in all cases: biochemical
kinases [1] = molecular target: kinases (Homo sapiens, UniProt O43353); conditions: RIPK2 FRET-Lantha SP; Test Conc(μM) 1
kinases [2] = molecular target: kinases (Homo sapiens, UniProt P42681); conditions: TXK FRET-Z-Lyte SP; Test Conc(μM):ATP Conc(μM) 1:100
kinases [3] = molecular target: kinases (Homo sapiens, UniProt O00418); conditions: EEF2K FRET-Z-Lyte SP; Test Conc(μM):ATP Conc(μM) 1:10
kinases [4] = molecular target: kinases (Homo sapiens, UniProt Q9P286); conditions: PAK7 (KIAA1264) FRET-Z-Lyte SP; Test Conc(μM):ATP Conc(μM) 1:5
Sequence of kinases (Homo sapiens, UniProt Q9P286) (Q9P286 whole entry): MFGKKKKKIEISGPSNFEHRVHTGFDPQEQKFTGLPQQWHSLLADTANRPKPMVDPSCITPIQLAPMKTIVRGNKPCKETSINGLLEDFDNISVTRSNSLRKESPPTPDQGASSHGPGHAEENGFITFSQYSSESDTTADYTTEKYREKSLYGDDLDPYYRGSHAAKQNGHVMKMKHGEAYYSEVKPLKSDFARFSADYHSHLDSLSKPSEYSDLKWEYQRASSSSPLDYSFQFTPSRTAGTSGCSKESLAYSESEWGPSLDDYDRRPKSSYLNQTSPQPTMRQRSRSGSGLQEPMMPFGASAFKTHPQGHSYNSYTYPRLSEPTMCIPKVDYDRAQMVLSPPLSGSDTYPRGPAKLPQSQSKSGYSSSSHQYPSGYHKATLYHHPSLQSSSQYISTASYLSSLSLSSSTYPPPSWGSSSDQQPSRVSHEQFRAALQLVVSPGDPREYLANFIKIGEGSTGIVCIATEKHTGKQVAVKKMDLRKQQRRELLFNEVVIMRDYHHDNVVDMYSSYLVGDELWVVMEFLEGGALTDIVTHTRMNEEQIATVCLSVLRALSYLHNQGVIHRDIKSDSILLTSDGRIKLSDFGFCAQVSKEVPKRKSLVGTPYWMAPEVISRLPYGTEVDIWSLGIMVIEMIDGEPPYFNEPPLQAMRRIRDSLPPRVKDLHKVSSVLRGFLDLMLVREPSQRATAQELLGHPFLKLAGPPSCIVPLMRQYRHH

kinases [5] = molecular target: kinases (Homo sapiens, UniProt Q92630); conditions: DYRK2 FRET-Lantha SP; Test Conc(μM) 1
kinases [6] = molecular target: kinases (Homo sapiens, UniProt Q76MJ5); conditions: ERN2 FRET-Lantha SP; Test Conc(μM) 1
kinases [7] = molecular target: kinases (Homo sapiens, UniProt O43781); conditions: DYRK3 FRET-Z-Lyte SP; ATP Conc(μM):Test Conc(μM) 1:5
kinases [8] = molecular target: kinases (Homo sapiens, UniProt P35916); conditions: FLT4 (VEGFR3) *Mn* Z-Lyte SP; Test Conc(μM):ATP Conc(μM) 1:5
Sequence of kinases (Homo sapiens, UniProt P35916) (P35916 25-1363): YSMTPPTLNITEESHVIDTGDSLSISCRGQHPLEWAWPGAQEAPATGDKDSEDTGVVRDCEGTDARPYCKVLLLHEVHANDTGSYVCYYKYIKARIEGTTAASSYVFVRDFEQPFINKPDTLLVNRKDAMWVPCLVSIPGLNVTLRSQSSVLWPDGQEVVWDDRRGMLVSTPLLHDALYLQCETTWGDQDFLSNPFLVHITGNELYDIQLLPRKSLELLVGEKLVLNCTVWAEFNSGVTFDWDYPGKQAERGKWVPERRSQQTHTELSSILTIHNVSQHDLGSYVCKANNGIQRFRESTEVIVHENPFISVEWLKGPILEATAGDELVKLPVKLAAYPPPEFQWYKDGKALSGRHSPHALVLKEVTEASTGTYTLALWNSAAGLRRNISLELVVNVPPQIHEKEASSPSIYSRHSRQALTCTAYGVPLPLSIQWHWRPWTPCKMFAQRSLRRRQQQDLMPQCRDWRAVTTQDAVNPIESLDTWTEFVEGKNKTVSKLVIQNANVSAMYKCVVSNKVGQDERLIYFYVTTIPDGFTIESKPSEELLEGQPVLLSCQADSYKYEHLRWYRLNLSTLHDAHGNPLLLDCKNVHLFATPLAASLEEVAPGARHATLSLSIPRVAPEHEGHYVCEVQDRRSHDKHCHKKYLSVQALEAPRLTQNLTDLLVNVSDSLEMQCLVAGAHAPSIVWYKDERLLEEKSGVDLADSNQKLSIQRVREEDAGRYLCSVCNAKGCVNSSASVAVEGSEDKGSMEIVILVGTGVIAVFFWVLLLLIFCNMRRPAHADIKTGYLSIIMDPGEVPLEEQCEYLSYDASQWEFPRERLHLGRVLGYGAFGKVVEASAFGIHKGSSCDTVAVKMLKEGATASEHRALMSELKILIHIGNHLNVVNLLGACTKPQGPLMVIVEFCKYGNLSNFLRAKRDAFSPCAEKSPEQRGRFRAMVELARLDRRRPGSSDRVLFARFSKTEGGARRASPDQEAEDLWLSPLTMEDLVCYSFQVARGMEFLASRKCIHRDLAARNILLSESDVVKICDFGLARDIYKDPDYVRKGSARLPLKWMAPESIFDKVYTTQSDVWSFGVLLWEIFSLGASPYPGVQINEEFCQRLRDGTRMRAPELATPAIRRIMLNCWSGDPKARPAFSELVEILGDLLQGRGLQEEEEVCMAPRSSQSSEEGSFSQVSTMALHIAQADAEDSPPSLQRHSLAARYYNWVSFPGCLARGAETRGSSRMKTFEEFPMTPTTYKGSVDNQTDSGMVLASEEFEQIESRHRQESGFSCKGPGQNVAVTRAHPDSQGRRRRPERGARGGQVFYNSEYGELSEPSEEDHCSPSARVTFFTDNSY

kinases [9] = molecular target: kinases (Homo sapiens, UniProt Q2M2I8); conditions: AAK1 FRET-Lantha SP; Test Conc(μM) 1
kinases [10] = molecular target: kinases (Homo sapiens, UniProt Q9Y243); conditions: AKT3 (PKB gamma) Z-Lyte SP; Test Conc(μM):ATP Conc(μM) 1:100
Sequence of kinases (Homo sapiens, UniProt Q9Y243) (Q9Y243 whole entry): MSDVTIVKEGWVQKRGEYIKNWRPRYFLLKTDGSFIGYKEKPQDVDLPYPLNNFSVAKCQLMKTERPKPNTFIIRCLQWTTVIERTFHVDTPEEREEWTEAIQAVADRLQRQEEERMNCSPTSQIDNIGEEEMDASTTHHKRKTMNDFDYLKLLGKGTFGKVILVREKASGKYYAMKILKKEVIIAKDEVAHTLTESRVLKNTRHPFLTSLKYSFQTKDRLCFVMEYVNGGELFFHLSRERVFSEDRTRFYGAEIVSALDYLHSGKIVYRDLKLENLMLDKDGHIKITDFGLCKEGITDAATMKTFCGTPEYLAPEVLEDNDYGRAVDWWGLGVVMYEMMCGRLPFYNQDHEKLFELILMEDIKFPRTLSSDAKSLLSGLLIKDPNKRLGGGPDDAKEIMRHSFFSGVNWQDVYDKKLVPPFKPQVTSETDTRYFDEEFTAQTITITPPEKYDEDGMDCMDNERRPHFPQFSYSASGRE

kinases [11] = molecular target: kinases (Homo sapiens, UniProt Q13627); conditions: DYRK1A FRET-Z-Lyte SP; Test Conc(μM):ATP Conc(μM) 1:100
kinases [12] = molecular target: kinases (Homo sapiens, UniProt Q86SG6); conditions: NEK8 FRET-Lantha SP; Test Conc(μM) 1
kinases [13] = molecular target: kinases (Homo sapiens, UniProt P11362); conditions: FGFR1 *Mn* FRET-Z-Lyte SP; Test Conc(μM):ATP Conc(μM) 1:25
kinases [14] = molecular target: kinases (Homo sapiens, UniProt Q9UBF8); conditions: PI4KB FRET-Adapta SP; Test Conc(μM):ATP Conc(μM) 1:5
Sequence of kinases (Homo sapiens, UniProt Q9UBF8) (Q9UBF8 whole entry): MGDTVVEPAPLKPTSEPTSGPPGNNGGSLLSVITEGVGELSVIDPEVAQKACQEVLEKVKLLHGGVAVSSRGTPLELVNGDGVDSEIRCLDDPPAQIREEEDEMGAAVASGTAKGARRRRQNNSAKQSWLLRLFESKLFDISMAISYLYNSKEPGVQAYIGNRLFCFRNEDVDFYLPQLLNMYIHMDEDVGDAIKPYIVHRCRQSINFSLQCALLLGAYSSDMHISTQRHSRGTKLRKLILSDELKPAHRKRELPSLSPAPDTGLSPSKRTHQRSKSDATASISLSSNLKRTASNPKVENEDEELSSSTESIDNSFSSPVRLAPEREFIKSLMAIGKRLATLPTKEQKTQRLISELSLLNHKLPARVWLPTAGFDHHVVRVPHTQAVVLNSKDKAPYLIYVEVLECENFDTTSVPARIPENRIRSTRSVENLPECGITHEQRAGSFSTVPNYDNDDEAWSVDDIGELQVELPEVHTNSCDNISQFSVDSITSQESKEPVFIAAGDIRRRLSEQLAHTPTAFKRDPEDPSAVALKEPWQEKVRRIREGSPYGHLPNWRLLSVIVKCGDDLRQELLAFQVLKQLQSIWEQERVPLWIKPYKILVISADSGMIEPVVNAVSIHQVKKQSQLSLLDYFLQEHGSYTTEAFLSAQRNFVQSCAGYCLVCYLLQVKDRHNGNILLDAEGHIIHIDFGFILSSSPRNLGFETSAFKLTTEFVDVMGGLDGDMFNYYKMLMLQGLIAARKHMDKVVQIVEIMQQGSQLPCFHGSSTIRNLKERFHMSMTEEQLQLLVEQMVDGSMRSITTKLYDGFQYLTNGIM

kinases [15] = molecular target: kinases (Homo sapiens, UniProt Q9NYY3); conditions: PLK2 FRET-Z-Lyte SP; Test Conc(μM):ATP Conc(μM) 1:25
kinases [16] = molecular target: kinases (Homo sapiens, UniProt Q9HCP0); conditions: CSNK1G1 (CK1gamma1) Z-Lyte SP; Test Conc(μM):ATP Conc(μM) 1:5
kinases [17] = molecular target: kinases (Homo sapiens, UniProt P43403); conditions: ZAP70 *Mn* FRET-Z-Lyte SP; Test Conc(μM):ATP Conc(μM) 1:5
kinases [18] = molecular target: kinases (Homo sapiens, UniProt Q15759); conditions: MAPK11 (p38 beta) Z-Lyte SP; Test Conc(μM):ATP Conc(μM) 1:50
Sequence of kinases (Homo sapiens, UniProt Q15759) (Q15759 whole entry): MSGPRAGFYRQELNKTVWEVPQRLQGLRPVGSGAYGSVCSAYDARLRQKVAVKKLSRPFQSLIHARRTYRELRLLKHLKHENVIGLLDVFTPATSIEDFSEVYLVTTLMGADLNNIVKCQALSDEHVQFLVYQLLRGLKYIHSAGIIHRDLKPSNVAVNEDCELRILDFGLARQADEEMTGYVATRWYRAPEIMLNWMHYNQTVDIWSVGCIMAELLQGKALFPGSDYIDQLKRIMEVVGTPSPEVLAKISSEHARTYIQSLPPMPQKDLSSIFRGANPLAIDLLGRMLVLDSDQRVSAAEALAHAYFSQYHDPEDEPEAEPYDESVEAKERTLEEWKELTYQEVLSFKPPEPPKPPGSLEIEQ

kinases [19] = molecular target: kinases (Homo sapiens, UniProt O00311); conditions: CDC7/DBF4 FRET-Lantha SP; Test Conc(μM) 1
kinases [20] = molecular target: kinases (Homo sapiens, UniProt Q04771); conditions: ACVR1 (ALK2) FRET-Lantha SP; Test Conc(μM) 1
kinases [21] = molecular target: kinases (Homo sapiens, UniProt P36896); conditions: ACVR1B (ALK4) *Mn* Z-Lyte SP; Test Conc(μM):ATP Conc(μM) 1:5
kinases [22] = molecular target: kinases (Homo sapiens, UniProt Q9Y5S2); conditions: CDC42 BPB (MRCKB) Z-Lyte SP; Test Conc(μM):ATP Conc(μM) 1:5
kinases [23] = molecular target: kinases (Homo sapiens, UniProt O14986); conditions: Test Conc(μM):ATP Conc(μM) 1:10
kinases [24] = molecular target: kinases (Homo sapiens, UniProt Q9BWU1); conditions: Test Conc(μM) 1
Sequence of kinases (Homo sapiens, UniProt Q9BWU1) (Q9BWU1 whole entry): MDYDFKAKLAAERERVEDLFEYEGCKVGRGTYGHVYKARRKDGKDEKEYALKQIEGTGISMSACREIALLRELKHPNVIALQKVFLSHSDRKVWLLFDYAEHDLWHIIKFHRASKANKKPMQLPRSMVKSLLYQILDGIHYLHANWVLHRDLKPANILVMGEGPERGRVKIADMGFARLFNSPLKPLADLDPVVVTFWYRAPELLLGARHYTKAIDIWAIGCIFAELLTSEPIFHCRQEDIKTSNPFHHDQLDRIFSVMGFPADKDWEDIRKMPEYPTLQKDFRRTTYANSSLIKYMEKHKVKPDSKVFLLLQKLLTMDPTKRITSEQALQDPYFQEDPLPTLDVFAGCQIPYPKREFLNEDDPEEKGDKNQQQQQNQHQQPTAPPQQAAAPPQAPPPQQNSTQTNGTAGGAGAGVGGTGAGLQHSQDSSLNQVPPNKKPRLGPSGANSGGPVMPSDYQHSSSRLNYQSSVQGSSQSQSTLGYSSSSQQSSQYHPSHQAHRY

kinases [25] = molecular target: kinases (Homo sapiens, UniProt Q9H2K8); conditions: TAOK3 (JIK) FRET-Lantha SP; Test Conc(μM) 1
kinases [26] = molecular target: kinases (Homo sapiens, UniProt Q9HBY8); conditions: SGK2 FRET-Z-Lyte SP; Test Conc(μM):ATP Conc(μM) 1:50
kinases [27] = molecular target: kinases (Homo sapiens, UniProt P53778); conditions: MAPK12 (p38 gamma) Z-Lyte SP; Test Conc(μM):ATP Conc(μM) 1:10
kinases [28] = molecular target: kinases (Homo sapiens, UniProt Q09013); conditions: DMPK FRET-Lantha SP; Test Conc(μM) 1
Sequence of kinases (Homo sapiens, UniProt Q09013) (Q09013 whole entry): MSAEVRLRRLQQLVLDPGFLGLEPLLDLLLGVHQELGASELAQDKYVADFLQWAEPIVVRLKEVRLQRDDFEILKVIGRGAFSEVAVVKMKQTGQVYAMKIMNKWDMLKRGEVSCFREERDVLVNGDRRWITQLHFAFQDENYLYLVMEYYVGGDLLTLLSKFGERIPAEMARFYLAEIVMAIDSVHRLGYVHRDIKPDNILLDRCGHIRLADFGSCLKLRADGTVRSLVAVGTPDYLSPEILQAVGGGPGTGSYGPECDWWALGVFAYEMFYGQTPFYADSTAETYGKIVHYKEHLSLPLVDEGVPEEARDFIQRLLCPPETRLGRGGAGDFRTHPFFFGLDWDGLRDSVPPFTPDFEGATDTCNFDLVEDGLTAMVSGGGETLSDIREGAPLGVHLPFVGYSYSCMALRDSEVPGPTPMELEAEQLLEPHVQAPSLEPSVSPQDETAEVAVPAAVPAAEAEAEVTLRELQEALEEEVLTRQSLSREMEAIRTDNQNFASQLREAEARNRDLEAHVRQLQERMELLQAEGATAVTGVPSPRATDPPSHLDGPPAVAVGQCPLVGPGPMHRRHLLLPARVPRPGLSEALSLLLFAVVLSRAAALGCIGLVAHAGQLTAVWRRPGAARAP

kinases [29] = molecular target: kinases (Homo sapiens, UniProt O75385); conditions: ULK1 FRET-Lantha SP; Test Conc(μM) 1

Cc1ccc(NC(=O)c2ccnc(N3CCOCC3)c2)cc1Nc1ccnc(N2CC(C)OC(C)C2)n1 (stereo not drawn) [compound 3]
Mean Inhib (%) (kinases [1]): 13.0% | Mean Inhib (%) (kinases [2]): 5.1% | Mean Inhib (%) (kinases [3]): 5.5% | Mean Inhib (%) (kinases [4]): 3.9% | Mean Inhib (%) (kinases [5]): −0.5% | Mean Inhib (%) (kinases [6]): −3.5% | Mean Inhib (%) (kinases [7]): 0.4% | Mean Inhib (%) (kinases [8]): 2.8% | Mean Inhib (%) (kinases [9]): 5.8% | Mean Inhib (%) (kinases [10]): 5.8% | Mean Inhib (%) (kinases [11]): 6.2% | Mean Inhib (%) (kinases [12]): −9.5% | Mean Inhib (%) (kinases [13]): 6.5% | Mean Inhib (%) (kinases [14]): −9.0% | Mean Inhib (%) (kinases [15]): 1.8% | Mean Inhib (%) (kinases [16]): 5.2% | Mean Inhib (%) (kinases [17]): 8.1% | Mean Inhib (%) (kinases [18]): 47.6% | Mean Inhib (%) (kinases [19]): 4.9% | Mean Inhib (%) (kinases [20]): 2.3% | Mean Inhib (%) (kinases [21]): 6.8% | Mean Inhib (%) (kinases [22]): −7.0% | Mean Inhib (%) (kinases [23]; PIP5K1B FRET-Adapta SP): 4.5% | Mean Inhib (%) (kinases [24]; CDK11(Inactive) FRET-Lantha SP): −0.2% | Mean Inhib (%) (kinases [24]; CDK11 Cyclin C FRET-Lantha SP): 2.1% | Mean Inhib (%) (kinases [25]): 0.3% | Mean Inhib (%) (kinases [26]): 1.2% | Mean Inhib (%) (kinases [27]): 5.1% | Mean Inhib (%) (kinases [28]): 7.1% | Mean Inhib (%) (kinases [29]): 1.6%

Cc1cc(Oc2ccnc(Nc3ccc(S(N)(=O)=O)cc3)c2)c(-c2ccccn2)nc1C [compound 65]
Mean Inhib (%) (kinases [1]): 64.0% | Mean Inhib (%) (kinases [2]): 44.8% | Mean Inhib (%) (kinases [3]): 3.7% | Mean Inhib (%) (kinases [4]): 4.7% | Mean Inhib (%) (kinases [5]): 9.6% | Mean Inhib (%) (kinases [6]): 7.1% | Mean Inhib (%) (kinases [7]): −1.2% | Mean Inhib (%) (kinases [8]): 2.0% | Mean Inhib (%) (kinases [9]): 2.4% | Mean Inhib (%) (kinases [10]): 4.2% | Mean Inhib (%) (kinases [11]): −1.9% | Mean Inhib (%) (kinases [12]): −7.5% | Mean Inhib (%) (kinases [13]): 4.3% | Mean Inhib (%) (kinases [14]): 0.5% | Mean Inhib (%) (kinases [15]): 14.0% | Mean Inhib (%) (kinases [16]): −1.9% | Mean Inhib (%) (kinases [17]): 0.0% | Mean Inhib (%) (kinases [18]): 21.2% | Mean Inhib (%) (kinases [19]): 0.9% | Mean Inhib (%) (kinases [20]): 88.2% | Mean Inhib (%) (kinases [21]): 97.8% | Mean Inhib (%) (kinases [22]): −5.0% | PIP5K1B FRET-Adapta SP Mean Mean Inhib (%) (kinases [23]; PIP5K1B): 2.1% | Mean Inhib (%) (kinases [24]; CDK11(Inactive) FRET-Lantha SP): 1.0% | CDK11 Cyclin C FRET-Lantha SP Mean Mean Inhib (%) (kinases [24]; CDK11 Cyclin C): 3.8% | Mean Inhib (%) (kinases [25]): 1.7% | Mean Inhib (%) (kinases [26]): −1.3% | Mean Inhib (%) (kinases [27]): 4.1% | Mean Inhib (%) (kinases [28]): 0.5% | Mean Inhib (%) (kinases [29]): 0.1%
